Among the data in ChEMBL document CHEMBL1130882, “C-alkylated spiro[benzofuran-3(2H),4'-1'-methyl-piperidine-7-ols] as potent opioids: a conformation-activity study” (Bioorg Med Chem Lett, 1998) are Ki values, retold here.

One test has as its target Mu-type opioid receptor (Cavia porcellus, UniProt P97266). Kind of test: Binding affinity against mu opioid receptor was determined in brain membrane preparations from male Hartley guinea-pigs. In kind it is cell membranes.
For test [1], the target named is Kappa-type opioid receptor (Cavia porcellus, UniProt P41144). In words: Binding affinity against Opioid receptor kappa 1 was determined in brain membrane preparations from male Hartley guinea-pigs. In kind it is cell membranes.

The structures appear in SMILES notation. Some results are limits rather than exact numbers.

Sequence of Kappa-type opioid receptor (P41144 whole entry): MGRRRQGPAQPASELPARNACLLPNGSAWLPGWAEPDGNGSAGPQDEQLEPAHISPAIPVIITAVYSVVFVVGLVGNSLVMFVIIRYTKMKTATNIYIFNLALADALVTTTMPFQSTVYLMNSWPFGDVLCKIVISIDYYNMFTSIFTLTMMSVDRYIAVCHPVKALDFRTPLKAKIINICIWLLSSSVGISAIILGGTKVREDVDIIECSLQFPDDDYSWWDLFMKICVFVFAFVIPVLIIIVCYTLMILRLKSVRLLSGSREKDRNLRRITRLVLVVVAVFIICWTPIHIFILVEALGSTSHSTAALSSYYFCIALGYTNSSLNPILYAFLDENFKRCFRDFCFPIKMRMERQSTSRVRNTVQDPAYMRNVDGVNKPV
Sequence of Mu-type opioid receptor (P97266 whole entry): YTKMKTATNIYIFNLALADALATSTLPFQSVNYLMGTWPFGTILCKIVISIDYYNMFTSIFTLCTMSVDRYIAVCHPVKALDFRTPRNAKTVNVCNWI

By Ki is commonly meant a measure of affinity in units of concentration, obtained from inhibition or displacement. The low end stands for a stronger hold on the target, the high end for a looser hold on the target. With `CC1CN(C)CCC12COc1c(O)cccc12` (racemic; form 2), the Ki was 1020 nM at Mu-type opioid receptor and 505 nM in test [1]. The corresponding values for `CCC1Oc2c(O)cccc2C12CCN(C)CC2` (racemic) are 102 nM and more than 100000 nM. The corresponding values for `CC1CN(C)CCC12COc1c(O)cccc12` (racemic; form 1) are 54 nM and 177 nM.

In the case of `CC1Oc2c(O)cccc2C12CCN(C)CC2` (racemic), the inhibitory constant (Ki) was 124 nM at Mu-type opioid receptor and more than 100000 nM in test [1].

For the compound `CN1CCC2(CC1)COc1c(O)cccc12`, the Ki was 1650 nM on Mu-type opioid receptor and more than 100000 nM in test [1]. For `CCOC(=O)C1(c2ccccc2)CCN(C)CC1` [MEPERIDINE], the inhibition constant (Ki) in test [1] was more than 100000 nM.
